Measured values as given in patent US4235886A, “Cyclic hexapeptide somatostatin analogs” (Merck & Co., Inc., priority 1979, dated 1980).
Non-standard residues stand in square brackets, D forms with d. Residues, ends and D or L forms follow the SMILES beside them. dTrp(5-F) = N[C@H](Cc1c[nH]c2ccc(F)cc12)C(=O)O; Orn = NCCC[C@H](N)C(=O)O; Abu = CC[C@H](N)C(=O)O

Legend:
[1] = system: Rat pituitaries (growth hormone release); experiment: In vitro inhibition of growth hormone release from cultured rat pituitary cells; type: cell-based; settings: multiples or fractions of the effect of somatostatin (= 1), fiducial limits in parentheses, 4 hours incubation, radioimmunoassay
Method: The instant cyclic hexapeptide analogs of somatostatin are tested and compared with the effects of somatostatin in an in vitro test for the inhibition of growth hormone. The test is described as follows:
"Rat pituitaries were isolated according to the procedures of Vale and Grant "In vitro Pituitary Hormone Secretion Assay for Hypophysiotropic Substances" in Methods in Enzymology. Vol. XXXVII, eds. O'Malley, B. W. and Hardman, J. G. (Academic Press, Inc., New York) pp. 5-93 (1975).
After 4 days in culture, the cells were washed and incubated for 4 hours in Dulbecco-modified Eagle's medium in the presence or absence of graded doses of each analog or somatostatin. The medium was then collected for subsequent growth hormone determination by a double antibody radioimmunoassay for rat growth hormone."
The test results for some of the compounds of this invention are recorded below with the results for somatostatin listed first and given the arbitrary value of 1. The results for the instant compounds are given as multiples or fractions of the effect of somatostatin. The numbers in parentheses are the fiducial limits for the number preceding. The first of the instant compounds listed is the compound prepared in Example 1-5. The compound is written slightly different, however, to conform to the order of the amino acids found in somatostatin.

[2] = system: pentagastrin evoked gastric secretion in the chronic fistula dog; experiment: Inhibition of pentagastrin evoked gastric secretion in the chronic fistula dog; type: in vivo; settings: dose 0.8 μg/ml./min., infusion 0-60 min, pentagastrin 2.5 μg./kg./hour i.v., relative to placebo trial; for Gastric Secretion % Inhibition, Acid Concentration, 0-30 / Gastric Secretion % Inhibition, Vol., 0-30: 0-30 min; for Gastric Secretion % Inhibition, Acid Concentration, 30-60 / Gastric Secretion % Inhibition, Vol., 30-60: 30-60 min; for Gastric Secretion % Inhibition, Acid Concentration, 60-90 / Gastric Secretion % Inhibition, Vol., 60-90: 60-90 min; for Gastric Secretion % Inhibition, Acid Concentration, 90-120 / Gastric Secretion % Inhibition, Vol., 90-120: 90-120 min; for Gastric Secretion % Inhibition, Vol., 0-30 / Gastric Secretion % Inhibition, Vol., 30-60 / Gastric Secretion % Inhibition, Vol., 60-90 / Gastric Secretion % Inhibition, Vol., 90-120: volume
Method: The effects of the instant cyclichexapeptide analogs of somatostatin are determined by the following procedure.
Compounds were tested for their ability to inhibit pentagastrin evoked gastric secretion in the chronic fistula dog. Female beagle dogs with a chronic gastric fistula were given pentagastrin (2.5 μg./kg./hour, i.v. from -60 to 120 min.) and gastric outputs were collected via the fistula cannula. Samples were analyzed at 30 minute intervals for volume (ml.) and titratable acid (mEq/L) (Titration to pH 7 with 0.01 N NaOH); total acid output (mEq) was calculated as the production of output volume and acid concentration. Test compounds were infused at a constant rate from 0 to 60 minutes. Data have been expressed as percent change of total acid output relative to a placebo trial in the same animals.

**Q.** With `C[C@@H]1NC(=O)[C@@H]2CCCN2C(=O)[C@H](Cc2ccccc2)NC(=O)[C@H]([C@@H](C)O)NC(=O)[C@H](CCCCN)NC(=O)[C@@H](Cc2c[nH]c3ccccc23)NC1=O` [Cyclo(Pro-Ala-d-Trp-Lys-Thr-Phe)] (cyclo(A[dW]KTFP)) as the compound, how does the “Growth Hormone Release Inhibition In Vitro” value [1] read?
**A.** 0.19 (0.1-0.38)

**Q.** `CC(C)C[C@@H]1NC(=O)[C@@H]2CCCN2C(=O)[C@H](Cc2ccccc2)NC(=O)[C@H]([C@@H](C)O)NC(=O)[C@H](CCCCN)NC(=O)[C@@H](Cc2c[nH]c3ccccc23)NC1=O` [Cyclo(Pro-Leu-D-Trp-Lys-Thr-Phe)] (cyclo(FPL[dW]KT)) was tested. Which “Growth Hormone Release Inhibition In Vitro” value [1] did it give?
**A.** 0.29 (0.13-0.57)

**Q.** `C[C@@H](O)[C@@H]1NC(=O)[C@H](CCCCN)NC(=O)[C@@H](Cc2c[nH]c3ccc(F)cc23)NC(=O)[C@H](Cc2ccccc2)NC(=O)[C@@H]2CCCN2C(=O)[C@H](Cc2ccccc2)NC1=O` [Cyclo(Pro-Phe-D-5F-Trp-Lys-Thr-Phe)] (cyclo(FPF[dTrp(5-F)]KT)) was tested. Which “Growth Hormone Release Inhibition In Vitro” value [1] did it give?
**A.** 2.4 (2.1-2.8)

**Q.** Which “Growth Hormone Release Inhibition In Vitro” value [1] does the source give for `CC(C)C[C@@H]1NC(=O)[C@H]([C@@H](C)O)NC(=O)[C@H](CCCCN)NC(=O)[C@@H](Cc2c[nH]c3ccccc23)NC(=O)[C@H](Cc2ccccc2)NC(=O)[C@@H]2CCCN2C1=O` [Cyclo(Pro-Phe-D-Trp-Lys-Thr-Leu)] (cyclo(F[dW]KTLP)) here?
**A.** 0.16 (0.07-0.33)

**Q.** How did the “Growth Hormone Release Inhibition In Vitro” value [1] turn out when `C[C@@H](O)[C@@H]1NC(=O)[C@H](CCCCN)NC(=O)[C@@H](Cc2c[nH]c3ccccc23)NC(=O)[C@H](Cc2ccccc2)NC(=O)[C@@H]2CCCN2C(=O)[C@H](Cc2ccccc2)NC1=O` [Cyclo(Pro-Phe-D-Trp-Lys-Thr-Phe)] (cyclo(PF[dW]KTF)) was run?
**A.** 1.71 (1.31-2.32)

**Q.** And the “Gastric Secretion % Inhibition, Acid Concentration, 0-30” value [2]?
**A.** 18%

**Q.** And the “Gastric Secretion % Inhibition, Acid Concentration, 30-60” value [2]?
**A.** 47%

**Q.** And the “Gastric Secretion % Inhibition, Acid Concentration, 60-90” value [2]?
**A.** 54%

**Q.** And the “Gastric Secretion % Inhibition, Acid Concentration, 90-120” value [2]?
**A.** 68%

**Q.** What about the “Gastric Secretion % Inhibition, Vol., 0-30” value [2] of the same compound?
**A.** 88%

**Q.** What about the “Gastric Secretion % Inhibition, Vol., 30-60” value [2] of the same compound?
**A.** 98%

**Q.** And the “Gastric Secretion % Inhibition, Vol., 60-90” value [2]?
**A.** 95%

**Q.** And the “Gastric Secretion % Inhibition, Vol., 90-120” value [2]?
**A.** 86%

**Q.** How did the “Growth Hormone Release Inhibition In Vitro” value [1] turn out when `NCCCC[C@@H]1NC(=O)[C@@H](Cc2c[nH]c3ccccc23)NC(=O)[C@H](Cc2ccccc2)NC(=O)[C@@H]2CCCN2C(=O)[C@H](Cc2ccccc2)NC(=O)[C@H](CO)NC1=O` [Cyclo(Pro-Phe-D-Trp-Lys-ser-Phe)] (cyclo(FPF[dW]KS)) was run?
**A.** 1.4 (1.1-1.7)

**Q.** Which “Growth Hormone Release Inhibition In Vitro” value [1] does the source give for `CC[C@@H]1NC(=O)[C@H](CCCCN)NC(=O)[C@@H](Cc2c[nH]c3ccccc23)NC(=O)[C@H](Cc2ccccc2)NC(=O)[C@@H]2CCCN2C(=O)[C@H](Cc2ccccc2)NC1=O` [Cyclo(Pro-Phe-D-Trp-Lys-α-ABU-Phe)] (cyclo([Abu]FPF[dW]K)) here?
**A.** 0.82 (0.57-1.18)

**Q.** With `C[C@@H](O)[C@@H]1NC(=O)[C@H](CCCN)NC(=O)[C@@H](Cc2c[nH]c3ccccc23)NC(=O)[C@H](Cc2ccccc2)NC(=O)[C@@H]2CCCN2C(=O)[C@H](Cc2ccccc2)NC1=O` [Cyclo(Pro-Phe-D-Trp-Orn-Thr-Phe)] (cyclo(FPF[dW][Orn]T)) as the compound, how does the “Growth Hormone Release Inhibition In Vitro” value [1] read?
**A.** 0.16(0.15-0.17)

**Q.** For `C[C@@H](O)[C@@H]1NC(=O)[C@H](CCCCN)NC(=O)[C@H](Cc2c[nH]c3ccccc23)NC(=O)[C@H](Cc2ccccc2)NC(=O)[C@@H]2CCCN2C(=O)[C@H](Cc2ccccc2)NC1=O` [Cyclo(Pro-Phe-L-Trp-Lys-Thr-Phe)] (cyclo(FPFWKT)), which “Growth Hormone Release Inhibition In Vitro” value [1] is on record?
**A.** 1.59 (1.33-1.92)

**Q.** How did the “Growth Hormone Release Inhibition In Vitro” value [1] turn out when `C[C@@H](O)[C@@H]1NC(=O)[C@H](CCCCN)NC(=O)[C@@H](Cc2c[nH]c3ccccc23)NC(=O)[C@H](Cc2ccc(O)cc2)NC(=O)[C@@H]2CCCN2C(=O)[C@H](Cc2ccccc2)NC1=O` [Cyclo(Pro-Tyr-D-Trp-Lys-Thr-Phe)] (cyclo(FPY[dW]KT)) was run?
**A.** 14.3 (8.3-33.0)

**Q.** What about the “Gastric Secretion % Inhibition, Acid Concentration, 0-30” value [2] of the same compound?
**A.** 30%

**Q.** And the “Gastric Secretion % Inhibition, Acid Concentration, 30-60” value [2]?
**A.** 49%

**Q.** And the “Gastric Secretion % Inhibition, Acid Concentration, 60-90” value [2]?
**A.** 52%

**Q.** And the “Gastric Secretion % Inhibition, Acid Concentration, 90-120” value [2]?
**A.** 27%

**Q.** And the “Gastric Secretion % Inhibition, Vol., 0-30” value [2]?
**A.** 67%

**Q.** What about the “Gastric Secretion % Inhibition, Vol., 30-60” value [2] of the same compound?
**A.** 87%

**Q.** What about the “Gastric Secretion % Inhibition, Vol., 60-90” value [2] of the same compound?
**A.** 87%

**Q.** What about the “Gastric Secretion % Inhibition, Vol., 90-120” value [2] of the same compound?
**A.** 64%
